Results from patent US20250319189A1, “GANCICLOVIR COMPOSITIONS AND RELATED METHODS” (Exela Pharma Sciences, LLC, priority 2013, published 2025).
Read-outs that look alike come from different tables or passages of the source.

Legend:
[1] = Stability of aqueous formulation on shelf storage / accelerated storage; type: physicochemical
[2] = Particulate matter in aqueous solution (USP requirements); type: physicochemical; conditions: aqueous solution of ganciclovir base at about or below about 3 mg/ml
Text: As used herein, the term “particulate-matter-free” or its grammatical equivalents such as “particle free” refer to the state in which the composition of the present invention meets the USP requirements for particulate matter in parenteral solutions. See for example, USP XXXII, Chapter 788. One of skill in the art understands and knows how to assess whether a given composition meets USP particulate matter requirements.

[3] = cited from earlier work
[4] = cited from earlier work; remark: listed apart in the source

Row | retained initial concentration of ganciclovir ([1]; aqueous solution at about or below about 3 mg/ml, accelerated storage or stability testing conditions) | stability for extended shelf-storage ([1]; aqueous solution of ganciclovir base at concentrations of about or below about 3 mg/ml) | Structure (SMILES) | particulate matter [2] | solubility in water [3] | solubility in water ([3]; listed as Ganciclovir sodium salt) | stability in an aqueous formulation (prolonged shelf-storage) [4]
1 | at least 95% | stable for extended shelf-storage | Nc1nc2c(ncn2COC(CO)CO)c(=O)[nH]1 [ganciclovir base, 9-(1,3-dihydroxy-2-propoxymethyl)guanine] | free or substantially free of particulate matter | limited solubility in water | – | –
2 | – | – | Nc1nc(O)c2ncn(COC(CO)CO)c2n1 [ganciclovir sodium] | – | – | very soluble in water | not sufficiently stable
